Reference: US20160030391A1, “METHODS AND COMPOSITIONS FOR IMPROVING COGNITIVE FUNCTION” (THE JOHNS HOPKINS UNIVERSITY, priority 2013, published 2016)
Where two headings read alike, the source gives them in different places.

Experiments:
[1] = levetiracetam blood plasma levels in aged-impaired rats; assay type: in vivo; details: rat, 60 mg/kg/day, 28-day treatment, read-out: mean levetiracetam blood plasma level
Excerpt: Rats: Blood was drawn from aged-impaired rats by cardiac puncture during perfusion after a 28-day levetiracetam treatment period and sent for analysis of levetiracetam plasma levels by MedTox Laboratories in St. Paul, Minn.

[2] = system: aMCI subjects; assay: Verbal Paired Associates Test - Recognition; assay type: in vivo, human; details: levetiracetam 125 mg twice a day for two weeks
Excerpt: Breaks are provided to the subject as needed.

[3] = cited from earlier work
[4] = system: somatostatin in DG hilus; assay: anti-SOM immunohistochemistry, hilar interneuron counts after chronic levetiracetam; assay type: in vivo, rat; details: levetiracetam 10 mg/kg/day, osmotic minipumps, four weeks, aged-impaired rats
Experimental: Under isoflurane anesthesia, memory-impaired aged rats were implanted subcutaneously in the intrascapular region with osmotic mini-pumps (ALZET, Durect Corporation, Cupertino, Calif.) with levetiracetam (10 mg/kg/day) or saline vehicle for four weeks prior to perfusion. Young rats, which served as controls, received either saline vehicle in mini-pumps or no implantation.
At the end of the 4-week treatment period, rats were anesthetized with isoflurane and perfused transcardiacally with 0.1 M phosphate buffer saline, followed by 4% paraformaldehyde in phosphate buffer. Brains were removed and post-fixed in paraformaldehyde overnight. […]
Tissue was labeled with anti-SOM antiserum (Santa Cruz Biotechnology; cat. no. SC7819-P) using an established immunoperoxidase protocol and tissue sections were processed concurrently to minimize inter-replication variability (Haberman et al., 2009). […] The secondary antibody was detected with avidin-biotin complex (ABC Elite; Vector Laboratories Inc., Burlingame, Calif.) and the avidin-biotin complex was visualized with nickel-enhanced diaminobenzadine (Vector Laboratories Inc., Burlingame, Calif.). […]
Interneuron quantification was performed using a Zeiss Axioplan 2 microscope equipped with a motorized stage. […] Neuron counts were analyzed as the total number of hilar interneurons per hippocampal section for each rat.

[5] = system: Dentate Gyrus/CA3 region of aMCI patients; assay: fMRI activity in DG/CA3 during lure stimuli correctly identified as similar; assay type: in vivo, human; details: aMCI subjects

Compound: CC[C@@H](C(N)=O)N1CCCC1=O [levetiracetam, (2S)-2-(2-oxopyrrolidin-1-yl)butanamide]
- concentration at 28 days [1]: 22400 ng/mL
- performance in Verbal Paired Associates Test—Recognition [2]: fail to rescue performance
- Plasma half-life ([3]; expected in elderly due to decreased renal function): 9 to 10 h
- time of peak plasma concentrations ([3]; following oral administration): about 1 hour
- time to steady state ([3]; multiple twice-daily dosing): 2 days
- Plasma half-life ([3]; oral administration): approximately 7±1 hour
- absorption after oral administration ([3]; oral administration): rapidly and almost completely absorbed
- effect of food on bioavailability ([3]; oral administration): not affected by food
- levels of somatostatin in DG hilus (SOM-immunoreactive hilar neurons) [4]: restores
- DG/CA3 hyperactivity (fMRI) ([5]; levetiracetam 62.5 mg BID for two weeks): does not significantly reduce
- DG/CA3 activity during successful memory judgments (fMRI) ([5]; levetiracetam 125 mg twice a day for two weeks vs placebo): reduces DG/CA3 hyper-activity
- DG/CA3 hyperactivity (fMRI) ([5]; levetiracetam 250 mg BID for two weeks): does not significantly reduce
